Source: article PMC4356558, “Prediction of Chemical Respiratory Sensitizers Using GARD, a Novel In Vitro Assay Based on a Genomic Biomarker Signature” (PLoS ONE, 2015)
Converted amounts (≈) assume the structure as drawn. Like-named read-outs stand apart in the source and are kept apart here.

Legend:
MUTZ-3 cells = test: Chemical cytotoxicity, concentration yielding 90% relative viability (Rv90), propidium iodide staining
From the text: A panel of 32 reference chemicals comprising a selection of 10 well characterized respiratory sensitizers and 22 non-respiratory sensitizers, collectively termed the training dataset, were used for cell stimulations in order to establish the predictive genomic biomarker signature. […] Additionally, a panel of 25 chemicals, including 6 respiratory sensitizers and 19 non-respiratory sensitizers, collectively termed the independent test dataset, were used for cell stimulations in order to form an independent testset for validation of the identified predictive genomic biomarker signature. The […] comprised both control chemicals, included during the training of the model, as well as chemicals previously unseen during training of the model. […] All chemicals were purchased from Sigma-Aldrich (St. Louis, MO, USA). Chemicals were dissolved and diluted into GARD input concentration in either water or DMSO prior to stimulation of cells. For chemicals dissolved in DMSO, the in-well concentration of DMSO was 0.1%. Monitoring of chemical cytotoxicity and establishment of GARD input concentration for each chemical compound was performed as previously described. […] Toxic compounds were used at a concentration yielding 90% relative viability (Rv90). The criterion that was first met determined the GARD input concentration for each compound.
(§1) The human acute myelomonocytic leukemia cell line MUTZ-3[68, 69] was obtained from Leibniz-Institut DSMZ-Deutsche Sammlung von Mikroorganismen und Zellkulturen (DSMZ, Braunschweig, Germany). Maintenance of cells, chemical stimulation of MUTZ-3 and all subsequent isolation of mRNA and preparation of cDNA were performed as previously described. In short, a phenotypic control of MUTZ-3 was performed using flow cytometry prior to chemical stimulation to ensure cells were in an immature state. The following FITC-conjugated mouse monoclonal antibodies (mAbs) were used: CD1a (DakoCytomation, Glostrup, Denmark), CD34, CD86, HLA-DR, IgG1 (BD Biosciences, Franklin Lakes, NJ). The following PE-conjugated mouse monoclonal antibodies were used: CD14 (DakoCytomation), CD54, CD80, IgG1 (BD Biosciences). Cell viability was determined using Propidium Iodide (BD Biosciences) staining. Samples were run on FACSCanto II instrument. Data was acquired using FACS Diva software (BD Biosciences) and analyzed using FCS Express V4 (De Novo Software, Los Angeles, CA). Gating was performed to exclude cell debris and non-viable cells based on forward- and side-scattering properties and quadrants established using isotype-controls. During chemical exposure, cells were seeded at 200.000 cells/ml in 24-well plates and exposed to chemical compound at the GARD input concentration. Stimulated cells were harvested after 24h incubation at 37 °C, 5% CO2 and RNA was isolated with TRIzol reagent (Life Technologies, Carlsbad, CA) using standardized protocols provided by the manufacturer. In parallel, a control of the maturity state of the cells was performed by flow cytometric analysis of CD86. Preparation of cDNA and hybridization, washing and scanning of the Human Gene 1.0 ST Arrays (Affymetrix, Santa Clara, CA, USA) was performed, according to standardized protocols provided by the manufacturer (Affymetrix).

[1] = test system: GRPS genomic biomarker signature (389 transcripts) in MUTZ-3 cells; test: GARD assay with GARD Respiratory Prediction Signature (GRPS), SVM classification of respiratory sensitizers
Protocol: as §1
Gene expression data obtained from the Human Gene 1.0 ST Arrays were normalized using the Single-Channel array normalization (SCAN) algorithm, and potential batch effects between different set of experiments were adjusted using the ComBat empirical bayes method. Normalizations and batch adjustments were performed in R statistical software using the open software Bioconductor v2.14 [73] with the additional software packages SCAN.UPC [70] and sva. Normalized data was imported into Qlucore Omics Explorer 3.0 (Qlucore AB, Lund, Sweden) and visualized using Principal Component Analysis (PCA). Predictors were selected from a one-way ANOVA p-value filtration, using false discovery rate (FDR) to adjust for multiple hypothesis testing, comparing respiratory sensitizers and non-respiratory sensitizers. […] The Backward Elimination algorithm was modified to minimize the Kullback-Leibler error [53] rather than maximizing the Area Under the Receiver Operating Characteristic (AUC ROC), in order to enable signature optimization in cases where the AUC ROC reaches 1.0. […] The script for Backwards Elimination was programmed in R, with the additional package e1071 [78]. The method by which the predictive genomic biomarker signature was established was validated using cross-validation based on Support Vector Machines (SVM), based on a linear kernel, as described previously. In short, the training dataset was randomly divided into a new cross-validation training dataset comprising 70% of the stimulations, and a cross-validation test dataset comprising 30% of the stimulations. In addition, care was taken to maintain the same proportion between respiratory sensitizers and non-respiratory sensitizers as in the complete training dataset. A new predictive genomic biomarker signature was identified from the cross-validation training dataset using one-way ANOVA p-value filtration as described above.

[2] = Max solubility of chemicals in cell media (establishment of GARD input concentration); conditions: for Max solubility: dissolved in vehicle (water or DMSO); for solubility: aqueous buffer, kinetic from dmso stock
[3] = test system: GPS genomic biomarker signature (200 genes) in MUTZ-3 cells
From the text: The GARD assay is based on measurements of transcriptional levels of a genomic biomarker signature (GARD Prediction Signature, or GPS) comprising 200 genes in the myeloid human cell line MUTZ-3 [43–45] using transcriptome-wide DNA microarray technology.
The human acute myelomonocytic leukemia cell line MUTZ-3[68, 69] was obtained from Leibniz-Institut DSMZ-Deutsche Sammlung von Mikroorganismen und Zellkulturen (DSMZ, Braunschweig, Germany). Maintenance of cells, chemical stimulation of MUTZ-3 and all subsequent isolation of mRNA and preparation of cDNA were performed as previously described [41, 42]. In short, a phenotypic control of MUTZ-3 was performed using flow cytometry prior to chemical stimulation to ensure cells were in an immature state. The following FITC-conjugated mouse monoclonal antibodies (mAbs) were used: CD1a (DakoCytomation, Glostrup, Denmark), CD34, CD86, HLA-DR, IgG1 (BD Biosciences, Franklin Lakes, NJ). The following PE-conjugated mouse monoclonal antibodies were used: CD14 (DakoCytomation), CD54, CD80, IgG1 (BD Biosciences). Cell viability was determined using Propidium Iodide (BD Biosciences) staining. Samples were run on FACSCanto II instrument. Data was acquired using FACS Diva software (BD Biosciences) and analyzed using FCS Express V4 (De Novo Software, Los Angeles, CA). […]

[4] = test system: CD86 expression of MUTZ-3 cells; test: CD86 cell surface expression of MUTZ-3 cells following chemical stimulation, flow cytometry; type: cell-based, human; conditions: 24 h stimulation at GARD input concentration; students t-test, p<0.05
physchem = conditions: aqueous buffer, kinetic from dmso stock
[5] = replicate stimulation 1, 24 h at GARD input concentration, independent test dataset, > 0 = respiratory sensitizer
[6] = replicate stimulation 2, 24 h at GARD input concentration, independent test dataset, > 0 = respiratory sensitizer
[7] = replicate stimulation 3, 24 h at GARD input concentration, independent test dataset, > 0 = respiratory sensitizer
[8] = respiratory sensitizer if any of replicate stimulations has SVM decision value > 0
[9] = reference compounds of the training dataset
[10] = concentration yielding 90% relative viability, MUTZ-3, training dataset

| SMILES | SVM decision value 1 [1, 5] | SVM decision value 2 [1, 6] | SVM decision value 3 [1, 7] | Classification, Pos if 1 sample > 0 [1, 8] | other results |
| --- | --- | --- | --- | --- | --- |
| O=CC=O [Glyoxal] | −1.02 | −0.69 | −0.56 | Non-sensitizer | Rv90 (MUTZ-3 cells): 300 µM |
| O=C1OC(=O)c2ccccc21 [Phtalic Anhydride] | 0.20 | −0.12 |  | Sensitizer | Max solubility ([2]; chemicals of the independent test dataset): 200 µM; Max solubility [2, 9]: 200 µM |
| CCCCCCCCCCCCOS(=O)(=O)[O-].[Na+] [Sodium dodecyl sulphate] |  |  |  |  | Rv90 (MUTZ-3 cells): 200 µM; Classification, Pos if 1 sample > 0 [1]: Non-sensitizer; SVM decision value 1 [1]: −1.49; SVM decision value 2 [1]: −0.80; SVM decision value 3 [1]: −1.30 |
| Nc1ccc(N)cc1 [p-phenylenediamine] | −1.38 | −1.19 | −1.80 | Non-sensitizer | Rv90 (MUTZ-3 cells): 75 µM |
| OCC=Cc1ccccc1 [Cinnamyl alcohol] | −0.57 |  | −1.26 | Non-sensitizer | solubility [2]: 500 µM (≈ 67.1 µg/mL) |
| Oc1cccc(O)c1 [Resorcinol] | −1.01 | −0.99 | −1.40 | Non-sensitizer |  |
| Clc1ccccc1 [Chlorobenzene] | −1.03 | −0.76 | −1.15 | Sensitizer | SVM decision value 4 ([1]; replicate stimulation 4, 24 h at GARD input concentration, independent test dataset, > 0 = respiratory sensitizer): 0.24; SVM decision value 5 ([1]; replicate stimulation 5, 24 h at GARD input concentration, independent test dataset, > 0 = respiratory sensitizer): 0.06 |
| CC(O)C(=O)O (centres unmarked) [Lactic acid] | −1.20 | −0.81 | −0.89 |  |  |
| Oc1ccccc1 [Phenol] |  |  |  |  | Classification, Pos if 1 sample > 0 [1]: Non-sensitizer; SVM decision value 1 ([1]; human): −1.04; SVM decision value 2 ([1]; human): −0.38; SVM decision value 3 ([1]; human): −0.95 |
| C1CNCCN1 [Piperazine] | −0.05 | −0.12 |  | Non-sensitizer | GRPS prediction compared with true identity ([1]; validation using the independent dataset): false negatives; Prediction in the GARD assay (skin sensitization) [3]: accurately predicted as skin sensitizers |
| O=CCCCC=O [Glutaraldehyde] |  |  |  |  | Rv90 (MUTZ-3 cells; [10]): 10 µM; Up-regulation of CD86 in comparison to unstimulated cells [4]: statistically significant |
| Cc1ccc(N=C=O)cc1N=C=O [Toluendiisocyanate] |  |  |  |  | solubility (physchem): 40 µM (≈ 6.97 µg/mL) |
| Sc1nc2ccccc2s1 [2-mercaptobenzothiazole] | −0.44 | −0.43 | −0.57 |  |  |
| [Cl][Pt-2]([Cl])([Cl])([Cl])([Cl])[Cl].[NH4+].[NH4+] [Ammonium hexachloroplatinate] |  |  |  |  | Up-regulation of CD86 in comparison to unstimulated cells [4]: statistically significant; Max solubility [2, 9]: 35 µM |
| Nc1ccccc1O [2-Aminophenol] |  |  |  |  | Rv90 (MUTZ-3 cells; human): 100 µM; Up-regulation of CD86 in comparison to unstimulated cells [4]: up-regulation of CD86 was also observed |
| O=C=NCCCCCCN=C=O [Hexamethylen diisocyanate] |  |  |  |  | solubility (physchem): 100 µM (≈ 16.8 µg/mL) |
| C=CCc1ccc(O)c(OC)c1 [Eugenol] | −1.67 | −1.53 | −1.51 | Non-sensitizer | Rv90 (MUTZ-3 cells; concentration yielding 90% relative viability, MUTZ-3, independent test dataset): 300 µM |
| CCCCCCCC(=O)O [Octanoic acid] | −0.65 | −0.79 | −1.22 | Non-sensitizer |  |
| C=O [Formaldehyde] |  |  |  |  | Rv90 (MUTZ-3 cells): 80 µM |
| CCCCO [1-Butanol] |  |  |  |  | Classification, Pos if 1 sample > 0 [1]: Sensitizer; SVM decision value 1 [1]: −0.32; SVM decision value 2 [1]: 0.12 |
| O=C(O)c1ccccc1O [Salicylic acid] | −0.73 | −1.08 | −1.13 | Non-sensitizer |  |
| O=C=Nc1ccc(Cc2ccc(N=C=O)cc2)cc1 [Methylene diphenol diisocyanate] |  |  |  |  | Max solubility [2, 9]: 50 µM |
| CCOC(=O)c1ccccc1C(=O)OCC [Diethyl phthalate] | −1.37 | −0.96 | −1.22 | Non-sensitizer |  |
| OCC(O)CO [Glycerol] | −1.05 | −1.11 | −0.77 | Non-sensitizer |  |
| O=C(O)c1ccc(O)cc1 [p-hydroxybenzoic acid] | −0.81 | −0.56 | −1.09 | Non-sensitizer |  |
| C=CC(=O)OCCO [2-Hydroxyethyl acrylate] |  |  |  |  | Rv90 (MUTZ-3 cells; [10]): 100 µM |
| Cc1ccc(S(=O)(=O)NCl)cc1 [Chloramine T] | 0.52 | 0.59 |  | Sensitizer |  |
| O=C(O)c1ccc2c(c1)C(=O)OC2=O [Trimellitic anhydride] |  |  |  |  | solubility [2]: 150 µM (≈ 28.8 µg/mL) |
| O=Cc1ccccc1 [Benzaldehyde] | −0.79 | −0.87 | −0.70 | Non-sensitizer |  |
| O=[N+]([O-])c1ccc(Cl)c([N+](=O)[O-])c1 [2,4-dinitrochlorobenzene] | −1.66 | −1.18 | −1.90 | Non-sensitizer | Rv90 (MUTZ-3 cells; human): 4 µM |
